# Laboratory results taken from patent publication US11254663B2 (BRISTOL-MYERS SQUIBB COMPANY, priority 2019, dated 2022).
# Biological target: T1, FXR (Homo sapiens (Human), UniProt Q96RI1)
# Assay: transient human FXR/Gal4-luciferase reporter assay
# Format: cell-based
# Conditions: not given
# In short: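 HEK293 cells stably carrying a 5×Gal4 response element–firefly luciferase reporter were transiently transfected overnight with a Gal4 DBD–human FXR LBD fusion plasmid. Compound was added in DMSO and cells were incubated overnight at 37 °C, 5% CO2. Activity was read as Steady-Glo luminescence.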
# T1 sequence (Q96RI1 262-486): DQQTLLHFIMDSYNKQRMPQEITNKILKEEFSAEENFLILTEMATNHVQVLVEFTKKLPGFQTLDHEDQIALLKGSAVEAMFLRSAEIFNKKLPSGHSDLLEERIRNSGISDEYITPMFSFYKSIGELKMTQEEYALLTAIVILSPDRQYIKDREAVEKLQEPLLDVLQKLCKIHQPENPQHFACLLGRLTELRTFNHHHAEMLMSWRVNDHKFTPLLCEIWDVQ
row,Structure (SMILES),EC50 [µM]
1,"CC(C)(C)c1nc(C23CCC(CN(C(=O)C45CC(F)(C4)C5)c4cncc(-c5cnc6nc(C7CC7)sc6c5)c4)(CC2)CC3)no1 [Example 480, N-((4-(5-(tert-butyl)-1,2,4-oxadiazol-3-yl)bicyclo[2.2.2]octan-1-yl)methyl)-N-(5-(2-cyclopropylthiazolo[4,5-b]pyridin-6-yl)pyridin-3-yl)-3-fluorobicyclo[1.1.1]pentane-1-carboxamide]",0.988

# Same assay, conditions: Gal4-hFXR fusion construct, HEK293 reporter cells; response relative to 8 μM GW-4064
row,Structure (SMILES),EC50 [µM]
1,"CC(C)Oc1ccc(-c2ccnc(N(CC34CCC(c5cc(C(C)(F)F)nn5C)(CC3)CC4)C(=O)OC(C)(C)C(F)(F)F)c2)cc1 [Example 657, 1,1,1-trifluoro-2-methylpropan-2-yl ((4-(3-(1,1-difluoroethyl)-1-methyl-1H-pyrazol-5-yl)bicyclo[2.2.2]octan-1-yl)methyl)(4-(4-isopropoxyphenyl)pyridin-2-yl)carbamate]",0.067
2,"CCOc1cnc(-c2cccc(N(CC34CCC(c5nc(C(C)(C)C)no5)(CC3)CC4)C(=O)C34CC(F)(C3)C4)c2)nc1 [Example 370, N-((4-(3-(tert-butyl)-1,2,4-oxadiazol-5-yl)bicyclo[2.2.2]octan-1-yl)methyl)-N-(3-(5-ethoxypyrimidin-2-yl)phenyl)-3-fluorobicyclo[1.1.1]pentane-1-carboxamide]",0.121

# Biological target: T1, FXR
# Assay: FXR EC50 (FXR agonist potency reported with each Example)
# Format: cell-based
# Conditions: not given
row,Structure (SMILES),EC50 [µM]
1,"O=C(N(CC12CCC(c3noc(C(F)F)n3)(CC1)CC2)c1cccc(-c2nnc(C3CC3)o2)c1)C12CC(F)(C1)C2 [Example 156, N-(3-(5-cyclopropyl-1,3,4-oxadiazol-2-yl)phenyl)-N-((4-(5-(difluoromethyl)-1,2,4-oxadiazol-3-yl)bicyclo[2.2.2]octan-1-yl)methyl)-3-fluorobicyclo[1.1.1]pentane-1-carboxamide]",0.103
2,"O=C(C1CC(F)(F)C1)N(CC12CCC(c3nnc(C4CC4)o3)(CC1)CC2)c1cccc(-c2nnc(C3CC3)o2)c1 [Example 135, N-((4-(5-cyclopropyl-1,3,4-oxadiazol-2-yl)bicyclo[2.2.2]octan-1-yl)methyl)-N-(3-(5-cyclopropyl-1,3,4-oxadiazol-2-yl)phenyl)-3,3-difluorocyclobutane-1-carboxamide]",1.11
3,"O=C(C1CC(F)(F)C1)N(CC12CCC(c3nc(C4CC4)no3)(CC1)CC2)c1cccc(-c2nc(C(F)F)co2)c1 [Example 41, N-((4-(3-cyclopropyl-1,2,4-oxadiazol-5-yl)bicyclo[2.2.2]octan-1-yl)methyl)-N-(3-(4-(difluoromethyl)oxazol-2-yl)phenyl)-3,3-difluorocyclobutane-1-carboxamide]",0.465
4,"Cn1nc(-c2cccc(N(CC34CCC(c5noc(C(C)(C)C)n5)(CC3)CC4)C(=O)C34CC(F)(C3)C4)c2)cc1C(C)(C)C [Example 214, N-((4-(5-(tert-butyl)-1,2,4-oxadiazol-3-yl)bicyclo[2.2.2]octan-1-yl)methyl)-N-(3-(5-(tert-butyl)-1-methyl-1H-pyrazol-3-yl)phenyl)-3-fluorobicyclo[1.1.1]pentane-1-carboxamide]",0.089
5,"O=C(C1CC(C(F)F)C1)N(CC12CCC(c3nnc(C4CC4)o3)(CC1)CC2)c1cccc(-c2nnc(C3CC3)o2)c1 (stereo not drawn) [Example 134, N-((4-(5-cyclopropyl-1,3,4-oxadiazol-2-yl)bicyclo[2.2.2]octan-1-yl)methyl)-N-(3-(5-cyclopropyl-1,3,4-oxadiazol-2-yl)phenyl)-3-(difluoromethyl)cyclobutane-1-carboxamide]",0.636
6,"O=C(C1CC(F)(F)C1)N(CC12CCC(c3nc(C4CC4)no3)(CC1)OC2)c1cccc(-c2nc(C3CC3)no2)c1 [Example 197, N-((1-(3-cyclopropyl-1,2,4-oxadiazol-5-yl)-2-oxabicyclo[2.2.2]octan-4-yl)methyl)-N-(3-(3-cyclopropyl-1,2,4-oxadiazol-5-yl)phenyl)-3,3-difluorocyclobutane-1-carboxamide]",0.965
7,"Cc1cnc(C23CCC(CN(C(=O)C45CC(F)(C4)C5)c4cccc(-c5nc(C(F)F)co5)c4)(CC2)CC3)o1 [Example 45, N-(3-(4-(difluoromethyl)oxazol-2-yl)phenyl)-3-fluoro-N-((4-(5-methyloxazol-2-yl)bicyclo[2.2.2]octan-1-yl)methyl)bicyclo[1.1.1]pentane-1-carboxamide]",0.258
8,"CC(C)(C)c1nc(C23CCC(CN(C(=O)C45CC(F)(C4)C5)c4cc(-c5cn[nH]c5)ccn4)(CC2)CC3)no1 [Example 211, N-(4-(1H-pyrazol-4-yl)pyridin-2-yl)-N-((4-(5-(tert-butyl)-1,2,4-oxadiazol-3-yl)bicyclo[2.2.2]octan-1-yl)methyl)-3-fluorobicyclo[1.1.1]pentane-1-carboxamide]",0.017
9,"COc1cccc(-c2cccc(N(CC34CCC(c5nc(C)no5)(CC3)CC4)C(=O)C3CC(F)(F)C3)c2)c1 [Example 220, 3,3-Difluoro-N-(3′-methoxy-[1,1′-biphenyl]-3-yl)-N-((4-(3-methyl-1,2,4-oxadiazol-5-yl)bicyclo[2.2.2]octan-1-yl)methyl)cyclobutane-1-carboxamide]",0.547
10,"CCCc1ncc(-c2cccc(N(CC34CCC(c5nc(C6CC6)no5)(CC3)CC4)C(=O)C3CC(C(F)F)C3)c2)o1 (stereo not drawn) [Example 28, N-((4-(3-cyclopropyl-1,2,4-oxadiazol-5-yl)bicyclo[2.2.2]octan-1-yl)methyl)-3-(difluoromethyl)-N-(3-(2-propyloxazol-5-yl)phenyl)cyclobutane-1-carboxamide]",0.248
11,O=C(N(CC12CCC(c3nc(C4CC4)no3)(CC1)OC2)c1cccc(-c2noc(C3CC3)n2)c1)C12CC(F)(C1)C2 [Example 203],0.074
12,"CC(C)c1nc(-c2cccc(N(CC34CCC(c5cc(C6CC6)nn5C)(CC3)CC4)C(=O)C34CC(F)(C3)C4)c2)no1 [Example 163, N-((4-(3-cyclopropyl-1-methyl-1H-pyrazol-5-yl)bicyclo[2.2.2]octan-1-yl)methyl)-3-fluoro-N-(3-(5-isopropyl-1,2,4-oxadiazol-3-yl)phenyl)bicyclo[1.1.1]pentane-1-carboxamide]",0.156
13,"O=C(N(CC12CCC(c3nc(C4CCOCC4)no3)(CC1)CC2)c1cccc(-c2nc(C3CC3)no2)c1)C12CC(F)(C1)C2 [Example 90, N-(3-(3-cyclopropyl-1,2,4-oxadiazol-5-yl)phenyl)-3-fluoro-N-((4-(3-(tetrahydro-2H-pyran-4-yl)-1,2,4-oxadiazol-5-yl)bicyclo[2.2.2]octan-1-yl)methyl)bicyclo[1.1.1]pentane-1-carboxamide]",0.121
14,"O=C(N(CC12CCC(c3nc(C4CC4)no3)(CC1)CC2)c1cccc(-c2csc(CCl)n2)c1)C12CC(F)(C1)C2 [Example 30, N-(3-(2-(chloromethyl)thiazol-4-yl)phenyl)-N-((4-(3-cyclopropyl-1,2,4-oxadiazol-5-yl)bicyclo[2.2.2]octan-1-yl)methyl)-3-fluorobicyclo[1.1.1]pentane-1-carboxamide]",0.112
15,"Cn1nc(-c2cccc(N(CC34CCC(c5nc(C6CC6)no5)(CC3)CC4)C(=O)C3CC(F)(F)C3)c2)cc1C1CC1 [Example 76, N-((4-(3-cyclopropyl-1,2,4-oxadiazol-5-yl)bicyclo[2.2.2]octan-1-yl)methyl)-N-(3-(5-cyclopropyl-1-methyl-1H-pyrazol-3-yl)phenyl)-3,3-difluorocyclobutane-1-carboxamide]",0.61
16,"O=C(C1CC(F)(F)C1)N(CC12CCC(c3nc(C4CC4)no3)(CC1)CC2)c1cccc(-c2cc(C3CC3)on2)c1 [Example 60, N-((4-(3-cyclopropyl-1,2,4-oxadiazol-5-yl)bicyclo[2.2.2]octan-1-yl)methyl)-N-(3-(5-cyclopropylisoxazol-3-yl)phenyl)-3,3-difluorocyclobutane-1-carboxamide]",0.23
17,"CC(C)c1noc(C23CCC(CN(C(=O)C45CC(F)(C4)C5)c4cccc(-c5noc(C6(C)CC6)n5)c4)(CC2)CC3)n1 [Example 175, 3-fluoro-N-((4-(3-isopropyl-1,2,4-oxadiazol-5-yl)bicyclo[2.2.2]octan-1-yl)methyl)-N-(3-(5-(1-methylcyclopropyl)-1,2,4-oxadiazol-3-yl)phenyl)bicyclo[1.1.1]pentane-1-carboxamide]",0.054
18,"O=C(N(CC12CCC(c3noc(C45CC(F)(C4)C5)n3)(CC1)CC2)c1cccc(-c2nc(C3CC3)no2)c1)C12CC(F)(C1)C2 [Example 114, N-(3-(3-cyclopropyl-1,2,4-oxadiazol-5-yl)phenyl)-3-fluoro-N-((4-(5-(3-fluorobicyclo[1.1.1]pentan-1-yl)-1,2,4-oxadiazol-3-yl)bicyclo[2.2.2]octan-1-yl)methyl)bicyclo[1.1.1]pentane-1-carboxamide]",0.177
19,"Cn1nc(C2CC2)cc1C12CCC(CN(C(=O)C34CC(F)(C3)C4)c3cncc(-c4nc(C5CC5)no4)c3)(CC1)CC2 [Example 205, N-(5-(3-cyclopropyl-1,2,4-oxadiazol-5-yl)pyridin-3-yl)-N-((4-(3-cyclopropyl-1-methyl-1H-pyrazol-5-yl)bicyclo[2.2.2]octan-1-yl)methyl)-3-fluorobicyclo[1.1.1]pentane-1-carboxamide]",0.218
20,"O=C(C1CCC1)N(CC12CCC(c3nc(C4CC4)no3)(CC1)CC2)c1cccc(-c2nc(CC3CC3)no2)c1 [Example 66, N-((4-(3-cyclopropyl-1,2,4-oxadiazol-5-yl)bicyclo[2.2.2]octan-1-yl)methyl)-N-(3-(3-(cyclopropylmethyl)-1,2,4-oxadiazol-5-yl)phenyl)cyclobutanecarboxamide]",0.303
21,"CCOC(=O)c1coc(-c2cccc(N(CC34CCC(c5nc(C6CC6)no5)(CC3)CC4)C(=O)C34CC(F)(C3)C4)c2)n1 [Example 13, Ethyl 2-(3-(N-((4-(3-cyclopropyl-1,2,4-oxadiazol-5-yl)bicyclo[2.2.2]octan-1-yl)methyl)-3-fluorobicyclo[1.1.1]pentane-1-carboxamido)phenyl)oxazole-4-carboxylate]",0.512
